Assay [1] deals with T1, Neprilysin (Oryctolagus cuniculus, UniProt P08049).
T1 sequence (P08049 whole entry): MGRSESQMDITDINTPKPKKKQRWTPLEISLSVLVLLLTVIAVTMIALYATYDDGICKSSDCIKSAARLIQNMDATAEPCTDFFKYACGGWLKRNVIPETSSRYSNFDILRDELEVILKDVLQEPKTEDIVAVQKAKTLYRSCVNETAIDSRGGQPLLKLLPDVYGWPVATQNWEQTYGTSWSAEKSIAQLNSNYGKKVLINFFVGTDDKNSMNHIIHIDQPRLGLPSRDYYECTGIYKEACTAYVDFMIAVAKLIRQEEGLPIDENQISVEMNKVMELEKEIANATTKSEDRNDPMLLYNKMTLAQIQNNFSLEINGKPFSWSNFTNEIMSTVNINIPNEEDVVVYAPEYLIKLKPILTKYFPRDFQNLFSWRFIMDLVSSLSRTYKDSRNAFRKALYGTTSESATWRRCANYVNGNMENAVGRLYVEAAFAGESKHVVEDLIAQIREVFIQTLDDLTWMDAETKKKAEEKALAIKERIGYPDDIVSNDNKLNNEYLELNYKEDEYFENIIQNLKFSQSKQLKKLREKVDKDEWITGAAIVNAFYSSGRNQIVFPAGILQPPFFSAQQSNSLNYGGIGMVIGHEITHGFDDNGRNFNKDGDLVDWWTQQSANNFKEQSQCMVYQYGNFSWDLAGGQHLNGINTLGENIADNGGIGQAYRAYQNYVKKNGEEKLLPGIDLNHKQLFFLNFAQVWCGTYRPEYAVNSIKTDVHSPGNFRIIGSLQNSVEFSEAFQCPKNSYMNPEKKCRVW
Description: Tested for binding affinity against neutral endopeptidase (NEP).

Assay [2] concerns the target T1, Neprilysin. As to the kind of experiment: Tested for inhibitory potency against neutral endopeptidase (NEP).
Assay [3] has as its target T2, Angiotensin-converting enzyme (Homo sapiens, UniProt P12821). Description: Tested for inhibitory potency against Angiotensin I converting enzyme.
Assay [4] deals with T2, Angiotensin-converting enzyme. Description: Tested for inhibitory potency against Angiotensin I Converting Enzyme.
Assay [5] addresses T3, Thermolysin (Bacillus thermoproteolyticus, UniProt P00800).
T3 sequence (P00800 whole entry): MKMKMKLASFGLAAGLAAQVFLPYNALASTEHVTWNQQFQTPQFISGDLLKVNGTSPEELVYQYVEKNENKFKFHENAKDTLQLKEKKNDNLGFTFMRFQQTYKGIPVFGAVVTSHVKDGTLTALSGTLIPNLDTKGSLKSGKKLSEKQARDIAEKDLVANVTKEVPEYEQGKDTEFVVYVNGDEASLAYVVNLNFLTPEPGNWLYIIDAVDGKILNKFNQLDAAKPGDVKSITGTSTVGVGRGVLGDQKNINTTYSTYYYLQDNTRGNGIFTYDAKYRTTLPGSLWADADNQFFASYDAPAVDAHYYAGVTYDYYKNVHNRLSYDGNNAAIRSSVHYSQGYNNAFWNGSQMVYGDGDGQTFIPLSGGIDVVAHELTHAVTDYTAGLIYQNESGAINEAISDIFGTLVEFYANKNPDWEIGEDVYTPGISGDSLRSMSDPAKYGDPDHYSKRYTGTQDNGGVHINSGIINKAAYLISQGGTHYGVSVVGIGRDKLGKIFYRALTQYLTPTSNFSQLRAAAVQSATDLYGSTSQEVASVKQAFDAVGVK
As to the kind of experiment: Tested for binding affinity against Thermolysin. Further details: species or system Bacteria.

T2 sequence (P12821 whole entry): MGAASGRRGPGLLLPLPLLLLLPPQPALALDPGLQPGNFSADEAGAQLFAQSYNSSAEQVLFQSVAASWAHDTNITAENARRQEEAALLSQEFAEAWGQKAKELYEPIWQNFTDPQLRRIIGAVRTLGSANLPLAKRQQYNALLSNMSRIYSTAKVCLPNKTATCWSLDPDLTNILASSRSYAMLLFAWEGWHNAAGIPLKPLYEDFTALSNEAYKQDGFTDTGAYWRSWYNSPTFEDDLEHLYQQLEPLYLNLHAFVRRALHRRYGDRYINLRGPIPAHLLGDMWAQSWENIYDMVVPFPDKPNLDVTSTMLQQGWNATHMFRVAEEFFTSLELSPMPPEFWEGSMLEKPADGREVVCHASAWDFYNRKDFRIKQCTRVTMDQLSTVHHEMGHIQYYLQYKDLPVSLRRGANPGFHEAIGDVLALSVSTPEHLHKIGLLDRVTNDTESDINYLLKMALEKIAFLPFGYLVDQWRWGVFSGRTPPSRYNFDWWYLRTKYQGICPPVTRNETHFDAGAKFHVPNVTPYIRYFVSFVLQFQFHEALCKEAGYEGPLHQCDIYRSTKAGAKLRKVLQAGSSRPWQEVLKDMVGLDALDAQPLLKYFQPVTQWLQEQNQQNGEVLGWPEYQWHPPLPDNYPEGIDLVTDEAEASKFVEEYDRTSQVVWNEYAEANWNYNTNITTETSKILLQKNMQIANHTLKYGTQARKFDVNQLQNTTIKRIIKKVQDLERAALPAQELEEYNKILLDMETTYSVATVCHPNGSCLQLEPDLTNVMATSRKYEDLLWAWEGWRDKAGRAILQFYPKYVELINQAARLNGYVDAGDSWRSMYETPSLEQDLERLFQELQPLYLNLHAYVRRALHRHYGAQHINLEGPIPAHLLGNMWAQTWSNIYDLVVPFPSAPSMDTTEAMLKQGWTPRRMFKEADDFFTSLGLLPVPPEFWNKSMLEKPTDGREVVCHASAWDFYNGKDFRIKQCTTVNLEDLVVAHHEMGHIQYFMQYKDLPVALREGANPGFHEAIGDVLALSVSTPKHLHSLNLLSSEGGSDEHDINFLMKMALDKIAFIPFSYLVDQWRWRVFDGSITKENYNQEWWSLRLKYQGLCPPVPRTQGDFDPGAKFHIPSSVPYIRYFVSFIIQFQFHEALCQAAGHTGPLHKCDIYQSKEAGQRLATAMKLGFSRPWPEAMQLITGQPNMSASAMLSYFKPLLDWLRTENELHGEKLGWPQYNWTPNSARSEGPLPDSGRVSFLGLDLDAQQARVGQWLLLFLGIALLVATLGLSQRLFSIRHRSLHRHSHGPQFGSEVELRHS

As usually defined, the Ki is the dissociation constant of the complex between target and ligand, obtained from inhibition or displacement. On to `O=C(O)C(CCc1ccccc1)N[C@@H](Cc1ccccc1)C(=O)NC[C@H](O)C(=O)O` (stereo partly specified), for which affinity in assay [1] was put at a Ki of 11 nM.

The IC50 is the point on the concentration scale where inhibition reaches its midpoint. Read a high IC50 as weaker potency. With `CC(NC(=O)C(Cc1ccccc1)CC(S)Cc1ccccc1)C(=O)O` (stereo unspecified), the results for the IC50 in assay [2] and in assay [3] were 190 nM and 3800 nM, respectively.

For the molecule `O=C(NC(Cc1ccc(O)cc1)C(=O)O)C(Cc1ccccc1)CC(S)Cc1ccccc1` (stereo unspecified), the figures for the IC50 in assay [2] and in assay [4] were 150 nM and 2400 nM, respectively.

For the molecule `CC(C)C[C@H](NC(CCc1ccccc1)C(=O)O)C(=O)N[C@@H](Cc1c[nH]c2ccccc12)C(=O)O` (stereo partly specified), the Ki in assay [5] turned out to be 50 nM.

Consider `O=C(O)CCNC(=O)C(Cc1ccccc1)CC(Cc1ccccc1)C(=O)O` (stereo unspecified), for which, in assay [2], the IC50 was 18 nM.

Consider `CCC(C)C(CC(S)Cc1ccccc1)C(=O)O` (stereo unspecified), for which the IC50 in assay [2] amounted to 250 nM; in assay [4], 4000 nM.

With `CCC(C)C(S)CC(C(=O)NC(Cc1ccc(O)cc1)C(N)=O)C(C)CC` (stereo unspecified), the concentration for half-maximal inhibition (IC50) in assay [2] stood at 360 nM; in assay [4], 4000 nM.

For `CCC(C)C(S)CC(C(=O)NC(Cc1ccc(O)cc1)C(=O)O)C(C)CC` (stereo unspecified), the IC50 in assay [2] turned out to be 380 nM; in assay [4] it was 3400 nM.

Take `O=C(O)C1CCCN1C(=O)C(Cc1ccccc1)CC(S)Cc1ccccc1` (stereo unspecified): the concentration for half-maximal inhibition (IC50) in assay [2] turned out to be 320 nM; in assay [4], 3600 nM.

`O=C(O)CCNC(=O)C(Cc1ccccc1)CC(S)Cc1ccccc1` (stereo unspecified): the IC50 is 290 nM in assay [2] and 3500 nM in assay [4].

Turning to `CCC(C)C(S)CC(Cc1ccccc1)C(=O)NC(Cc1ccc(O)cc1)C(N)=O` (stereo unspecified), the figures for the IC50 in assay [2] and in assay [4] were 350 nM and 3500 nM, respectively.

For the molecule `CCC(C)C(CC(S)CCc1ccccc1)C(=O)NC(Cc1ccc(O)cc1)C(=O)O` (stereo unspecified), the results for the 50% inhibitory concentration (IC50) in assay [2] and in assay [4] were 260 nM and 2900 nM, respectively.

As for `CC(NC(=O)C(Cc1ccccc1)CC(S)c1ccccc1)C(=O)O` (stereo unspecified), the IC50 in assay [2] was 130 nM; in assay [4] it was 3500 nM.

As for `CCC(C)C1CC(Cc2ccccc2)SC1=O` (stereo unspecified), the IC50 in assay [2] was 220 nM; in assay [4] it was 2300 nM.

For `CC(C)CC(S)C(Cc1ccccc1)C(=O)NC(C)C(=O)O` (stereo unspecified), the half-inhibitory concentration (IC50) stood at 3.6 nM in assay [2] and 4000 nM in assay [5].

As to `CCC(C)C(S)CC(Cc1ccccc1)C(=O)N[C@H](Cc1ccc(O)cc1)C(=O)O` (stereo partly specified), the figures for the IC50 in assay [2] and in assay [4] were 320 nM and 8000 nM, respectively.

For the molecule `CCC(C)C(CC(S)Cc1ccccc1)C(=O)NC(Cc1ccc(O)cc1)C(=O)O` (stereo unspecified), the values for the half-inhibitory concentration (IC50) in assay [2] and in assay [4] were 220 nM and 800 nM, respectively.

As to `CCC(C)C(CC(S)Cc1ccccc1)C(=O)N1CCCC1C(=O)O` (stereo unspecified), the IC50 in assay [2] was 350 nM; in assay [4], 2800 nM.

`CCC(C)C(S)CC(Cc1ccccc1)C(=O)N[C@@H](Cc1ccc(O)cc1)C(=O)O` (stereo partly specified): the IC50 in assay [2] is 270 nM; in assay [4], 4400 nM.

For the molecule `O=C(O)CNC(=O)[C@@H](CS)Cc1ccccc1` [THIORPHAN], the half-inhibitory concentration (IC50) in assay [5] worked out at 1800 nM.

For the origin of these results see ChEMBL document CHEMBL1127546, “New thiol inhibitors of neutral endopeptidase EC 3.4.24.11: synthesis and enzyme active-site recognition” (J Med Chem, 1994).
